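1) Cells in 96-well plates. 2) Compound, 48 h, 5 concentrations. 3) Linear interpolation between surrounding doses. 4) Unreached endpoint = highest concentration. GI50 marks 50% less growth. TGI: concentration producing complete growth inhibition.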
What was measured:
Test in all cases: DTP human tumour cell line panel, 48 h
BT-549 breast = test system: BT-549 breast
COLO 205 colon = test system: COLO 205 colon
HL-60(TB) leukemia = test system: HL-60(TB) leukemia
K-562 leukemia = test system: K-562 leukemia
MCF7 breast = test system: MCF7 breast
SK-MEL-5 melanoma = test system: SK-MEL-5 melanoma
UACC-62 melanoma = test system: UACC-62 melanoma

Structure (SMILES) | GI50 (BT-549 breast) [µM] | TGI (BT-549 breast) [µM] | GI50 (COLO 205 colon) [µM] | TGI (COLO 205 colon) [µM] | GI50 (HL-60(TB) leukemia) [µM] | TGI (HL-60(TB) leukemia) [µM] | GI50 (K-562 leukemia) [µM] | TGI (K-562 leukemia) [µM] | GI50 (MCF7 breast) [µM] | TGI (MCF7 breast) [µM] | GI50 (SK-MEL-5 melanoma) [µM] | TGI (SK-MEL-5 melanoma) [µM] | GI50 (UACC-62 melanoma) [µM] | TGI (UACC-62 melanoma) [µM]
O=C1/C(=C\C(Cl)=C/c2ccc([N+](=O)[O-])cc2)SC(=S)N1CCc1ccc(O)cc1 | 0.332 | 1.28 | 0.882 | 3.64 | 0.341 | 6.63 | 0.285 | > 100 | 0.365 | 1.66 | 1.63 | 3.01 | 0.566 | 1.86
Clc1cc(Cl)c(Cl)c(-c2nc(-c3cccnc3)cs2)c1 | 20.6 | 70.2 | 13.6 | 41.4 | 14.3 | > 100 | > 100 | > 100 | 10.4 | > 100 | 23.6 | > 100 | 24 | 73.3
O=C1OCc2c1cc(F)cc2[N+](=O)[O-] | > 100 | > 100 | 47.6 | > 100 | > 100 | > 100 | > 100 | > 100 | > 100 | > 100 | > 100 | > 100 | > 100 | > 100
C/C(CC(=O)NNc1ccc([N+](=O)[O-])cc1)=N\Nc1ccc([N+](=O)[O-])cc1 |  |  | 3.8 | > 100 | 2.48 | > 100 | 0.622 | > 100 | 12.9 | > 100 | 2.13 | 5.42 | 1.55 | 19
CCCc1cc2cc(-n3nc(C)c4c3CC(C)(C)CC4=O)cc(NC3CCC(O)CC3)c2c(=O)[nH]1 (centres undefined) | 0.959 | > 100 | 0.0775 | 1.22 | 0.13 | 1.2 | 0.0502 | > 100 | 0.0516 | > 100 | 0.241 | 3.56 | 0.189 | 5.39
Oc1ccc(CNCc2ccccc2)c2cccnc12 |  | > 100 |  | > 72 |  | 1.05 |  | > 100 |  | > 100 |  |  |  | > 34.8
CCN(CC)CCOc1ccc(/C(=C(\C)Cc2ccc(OC)cc2)c2ccc(OC(=O)NCc3ccccc3)cc2)cc1 | 1.7 | 3.36 | 1.86 | 3.76 | 1.3 | 2.97 | 1.75 | 4.52 | 0.269 | 2.62 | 1.75 | 3.16 | 1.92 | 3.55
Cc1n[nH]c(=S)n1/N=C/c1ccc(F)c(Oc2ccccc2)c1 | 63.7 | > 100 | 68.1 | > 100 | 48.6 | > 100 | 54.5 | > 100 | 41.4 | > 100 | 16.1 | 33.4 | 52.4 | > 100
COc1cc(/C=C/C(=O)c2ccc(Nc3ncnc4ccccc34)cc2)cc(OC)c1 | 3.34 | 11.9 | 9.59 | 39.8 | 3.74 | 30.4 |  |  | 1.84 | 5.79 |  |  | 7.7 | 27.7
CN[C@]12CC3(C=CC(=O)C=C3)O[C@@]1(Cc1ccc(OC)cc1)N(C)C(=O)N2 | 1.52 | 4.22 | 2.53 | 6.66 | 1.84 | 6.49 | 1.58 | > 100 | 0.778 | 15.1 | 1.65 | 3.15 | 1.46 | 3.34
S=c1nc2[nH]ncc2c(N/N=C/c2ccccc2)[nH]1 | > 100 | > 100 | > 100 | > 100 | > 100 | > 100 | > 100 | > 100 | 32 | 47 | 41.3 | > 100 | 72.7 | > 100
O=C(O)c1ccc2c(c1Nc1ccccc1)C(=O)c1ccccc1C2=O | 16.5 | 70 | 38.9 | > 100 | 79.3 | > 100 | 68.5 | > 100 | 38.1 | > 100 | 73.1 | > 100 | 35.6 | > 100
CCOC(=O)c1ccc(N(CCOS(C)(=O)=O)CCOS(C)(=O)=O)cc1C | 34.1 | > 100 | 38.4 | > 100 | 8.08 | 51.2 | 49.7 | > 100 | 17.5 | > 100 | 35.9 | > 100 | 23.8 | 95.4
Nc1ncnc2c1nc(-c1ccccc1)n2C1OC(CO)C(O)C1O (centres undefined) |  | > 100 |  | > 100 |  | > 100 |  | > 100 |  | > 100 |  | > 100 |  | > 100
Cn1cccc1-c1cc(-c2cccs2)[nH]c(=O)c1C#N | > 100 | > 100 | > 100 | > 100 |  |  | > 100 | > 100 | > 100 | > 100 | > 100 | > 100 | 73.1 | > 100
Cc1ccc(S(=O)(=O)/N=c2\ssc(Nc3ccccc3)c2Cl)cc1 | 5.27 | 17 |  |  | 15.5 | > 50 | 18.4 | > 50 |  |  | 6.2 | 12.4 | 13.5 | > 50
COc1ccc(-c2nn(-c3cccc(NC(=O)Nc4ccc(Cl)c(C(F)(F)F)c4)c3)cc2-c2ccncc2)cc1Cl | 2.08 | 4.83 | 2.01 | 4.2 |  |  |  |  | 2.19 | 13.7 | 1.69 | 3.61 | 1.93 | 5.01
CN1CCC[C@@H]1CCO[C@](C)(c1ccccc1)c1ccc(Cl)cc1 | 9.64 | 22.4 | 1.75 | 3.56 | 4.03 | 18 |  |  | 2.98 | 11.7 | 1.54 | 2.89 | 1.81 | 3.99

From PubChem BioAssay (NCI)
